Patent US6413499B1, “Methods and kits for maxillary dental anesthesia by means of a nasal deliverable anesthetic” (priority 2000, dated 2002)
Counter-ions that a name gives are not always drawn.

Tested on: maxillary dental arch
Assay: nasal deliverable anesthetizing composition applied to a patient's nasal cavity
Assay type: in vivo
Conditions: for absorption of the anesthetic with vasoconstrictor: compared to an anesthetic composition applied to nasal tissue not treated with a vasoconstrictor, HCl
Source text: As set forth above, the inventive nasal deliverable anesthetic compositions are delivered to the patient through the nasal cavity. This is done by applying the anesthetic composition to the lateral wall or membrane of the nasal cavity, where it can be absorbed into the nasal tissue, including nerves located within the nasal tissue. In the case where a delivery device having an extension tube is used, good results have been obtained by inserting approximately 15 mm of the tube into the patient's nasal cavity through the nostril. A nasal speculum may advantageously be used to assist in dilating the patient's nostril preparatory to inserting the extension tube so as to facilitate placement of the tube in a desired location within the patient's nasal cavity.
As discussed above with respect to FIG. 1, the nasal cavity includes a number of nerves that are responsible for transmitting pain and pressure impulses from the maxillary arch and palate to the brain. Most of these nerves collect at and below the maxillary nerve. Due to the location of the various nerves that collect at or below the maxillary nerve it may be possible to provide various degrees of anesthesia. Control of dosage volume, through control of the number of substance dispensing, can be utilized to determine the anatomical structures to be anesthetized. Minimal dosage volumes tend to yield anesthesia to at least a portion of the maxillary dentition, while greater anesthetic dosages yield anesthesia to the entire maxillary arch.
The tetracaine portion included an associated chlorobutanol preservative. The aqueous solution included sodium chloride in water.

Cc1cc(C(C)(C)C)c(O)c(C)c1CC1=NCCN1 [Oxymetazoline HCl]
anesthetic effect of the anesthetic with vasoconstrictor (compared to a lidocaine composition applied to nasal tissue not treated with a vasoconstrictor): enhanced the anesthetic effect of the lidocaine | absorption of the anesthetic with vasoconstrictor: enhanced the absorption of the tetracaine | absorption of the anesthetic with vasoconstrictor (listed as oxymetazoline HCl): enhanced the absorption of the benzocaine
